Measurements published in publication PMC9497675, “Explore the Interaction between Ellagic Acid and Zein Using Multi-Spectroscopy Analysis and Molecular Docking” (Foods, 2022).

Molecular target: T1, zein
T1 construct: gene alpha-zein
Assay: intrinsic fluorescence quenching (ex […] nm), modified Stern-Volmer double-log plot
Assay type: binding, Zea mays
Details: 298 K; 0.05 mg/mL zein in 70% aqueous ethanol; EA stock in 50% methanol; n = 1.2786; apparent constant

Structure (SMILES): O=c1oc2c(O)c(O)cc3c(=O)oc4c(O)c(O)cc1c4c23 [EA, ellagic acid]
- KA (L/mol): 9.47 × 10^2
